In ChEMBL document CHEMBL1201862, “PubChem BioAssay data set” (2004):
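Test compounds were applied to cells in 96-well plates for 48 hours at 5 doses. The concentration for 50% growth inhibition is given as GI50.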 Active and inactive are the calls of the source. Rule as the data show it: active = GI50 up to about 1.1 µM and inactive = higher.

Legend:
Experiment in all cases: growth of human tumour cells (NCI), 48 h
[1] = tested on: IGROV-1
[2] = tested on: KM12
[3] = tested on: 786-0
[4] = tested on: NCI-H522
[5] = tested on: NCI-H23
[6] = tested on: HT-29
[7] = tested on: U-251
[8] = tested on: EKVX
[9] = tested on: HCC 2998
[10] = tested on: MDA-MB-231
[11] = tested on: RPMI-8226
[12] = tested on: SN12C
[13] = tested on: DU-145
[14] = tested on: SK-MEL-28
[15] = tested on: HOP-92
[16] = tested on: OVCAR-4
[17] = tested on: M14
[18] = tested on: UACC-62
[19] = tested on: SF-539
[20] = tested on: RXF 393

Measured: GI50

O=C(O)C(NCc1ccccc1)C(NCc1ccccc1)C(=O)O (stereo not given)
inactive: [1] > 100 µM | [2] > 100 µM | [3] > 100 µM | [4] > 100 µM | [5] > 100 µM | [6] > 100 µM | [7] > 100 µM | [8] > 100 µM | [9] > 100 µM | [10] > 100 µM | [11] > 100 µM | [12] > 100 µM | [13] > 100 µM | [14] > 100 µM | [15] > 100 µM | [16] > 100 µM | [17] > 100 µM | [18] > 100 µM | [19] > 100 µM

O=C1/C(=C/c2cccs2)N=C(c2ccccc2)N1c1nc2ccccc2s1
inactive: [1] 16 µM | [2] > 100 µM | [3] 41.3 µM | [20] 33.3 µM | [4] 4.14 µM | [5] > 100 µM | [6] 36.3 µM | [7] 95.1 µM | [8] 49.9 µM | [9] > 100 µM | [10] > 100 µM | [11] 7.45 µM | [12] > 100 µM | [13] 67.3 µM | [14] > 100 µM | [15] 26.5 µM | [17] > 100 µM | [19] > 100 µM

CC1(C)C2CCC(O)(C2)C1N (stereo not given)
inactive: [1] > 100 µM | [2] > 100 µM | [3] > 100 µM | [20] > 100 µM | [5] > 100 µM | [6] > 100 µM | [7] > 100 µM | [8] > 100 µM | [9] > 100 µM | [10] > 100 µM | [11] > 100 µM | [12] > 100 µM | [13] > 100 µM | [14] > 100 µM | [15] > 100 µM | [16] > 100 µM | [17] > 100 µM | [18] > 100 µM | [19] > 100 µM

COc1cc(CC(C)=O)cc(OC)c1
inactive: [1] 74.1 µM | [3] > 100 µM | [5] > 100 µM | [6] 42.8 µM | [7] 63.5 µM | [8] 67.5 µM | [9] > 100 µM | [10] 36.3 µM | [11] 27.8 µM | [12] 46.8 µM | [13] > 100 µM | [14] > 100 µM | [15] 29.9 µM | [16] > 100 µM | [17] > 100 µM | [18] 60.3 µM

CC1C(=O)OCC2=CCN3CCC(OC(=O)C(C)C1(C)O)C23 (stereo not given)
inactive: [1] > 100 µM | [2] > 100 µM | [3] > 100 µM | [4] > 100 µM | [5] > 100 µM | [6] > 100 µM | [7] > 100 µM | [8] > 100 µM | [9] > 100 µM | [10] > 100 µM | [11] > 100 µM | [12] > 100 µM | [13] > 100 µM | [14] > 100 µM | [15] > 100 µM | [16] > 100 µM | [17] > 100 µM | [18] > 100 µM | [19] > 100 µM

Oc1ccc(-c2nc3cc(C(F)(F)F)ccc3n2CC2CCCN3CCCCC23)cc1 (stereo not given)
inactive: [1] 12.7 µM | [2] 15.3 µM | [3] 17 µM | [20] 15.5 µM | [4] 15.4 µM | [5] 16.5 µM | [6] 13.4 µM | [7] 14.8 µM | [8] 14.8 µM | [9] 9.75 µM | [10] 14.5 µM | [11] 15.6 µM | [13] 17.1 µM | [14] 16.1 µM | [15] 14.9 µM | [16] 15.1 µM | [17] 16.3 µM | [19] 18.7 µM

C[C@H]1C(OCCOC2O[C@@H]3O[C@@]4(C)CC[C@H]5[C@H](C)CCC([C@H]2C)[C@@]35O4)O[C@@H]2O[C@@]3(C)CC[C@H]4[C@H](C)CCC1[C@@]24O3 (stereo not given in full)
inactive: [1] 24.8 µM | [2] 27.5 µM | [3] 27 µM | [5] 31.6 µM | [6] 35.4 µM | [7] 40.9 µM | [9] 21.6 µM | [10] 27.2 µM | [11] 58.6 µM | [12] 21 µM | [13] 19.5 µM | [14] 61.5 µM | [15] 45.3 µM | [16] 80.5 µM | [17] 32.1 µM | [18] 61.2 µM | [19] 55.7 µM

O=C1CCCC/C1=C\c1ccc([N+](=O)[O-])cc1
inactive: [1] 17.1 µM | [2] 18.3 µM | [3] 14.9 µM | [4] 11 µM | [5] 24 µM | [6] 37.3 µM | [7] 16.1 µM | [8] 39.6 µM | [9] 12.3 µM | [10] 21.8 µM | [11] 7.57 µM | [12] 13.5 µM | [13] 39.1 µM | [14] 11.4 µM | [15] 19.6 µM | [16] 22.5 µM | [17] 18.4 µM | [18] 16.7 µM | [19] 20.4 µM
